Measurements taken from publication PMC11436758, “Computer-aided drug design to generate a unique antibiotic family” (Nature Communications, 2024).
Converted amounts (≈) assume the structure as drawn. “And” between values parts separate entries of the source, which are not always exact repeats. Identical values can stand only once. “Also recorded” adds a separate entry of the source.

Key:
A. baumannii ATCC 19606 = test: MIC alone and MIC of colistin in combination with DNM compounds; assay type: cell-based; conditions: compound alone
Protocol: (§1) The medium employed for the assay was Mueller Hinton II Broth (MHB II; Becton-Dickinson, Sparks, MD, USA). Agar plates used for the organisms were trypticase soy agar plus 5% sheep blood (BD; Sparks, MD, USA). MIC assay plates were prepared using the CLSI broth microdilution procedure. Automated liquid handlers (Multidrop 384, Biomek 2000 and Biomek FX) were used to conduct serial dilutions and liquid transfers. A standardized inoculum of each organism was prepared per CLSI methods. Suspensions were prepared to equal a 0.5 McFarland standard, followed by a 1:20 dilution in test media. The inocula were dispensed into sterile reservoirs divided by length (Beckman Colter) and the Biomek 2000 was used to inoculate the plates. Daughter plates were placed on the Biomek 2000 work surface in reverse orientation so that inoculation took place from low to high drug concentration. The Biomek 2000 delivered 10 μL of the diluted suspension into each well. These inoculations yielded a final cell concentration in the daughter plates of ~5 × 10^5 colony-forming units/mL in each well. The wells of the daughter plates ultimately contained 185 μL of broth, 5 μL of drug solution, and 10 μL of bacterial inoculum. Plates were covered with a sterile lid on the top plate, placed in plastic bags, and incubated at 35 °C for ~18 h. The microplates were viewed from the bottom using a plate viewer and the MIC was read. The MIC was recorded as the lowest concentration of drug that inhibited visible growth of the organism. Uninoculated solubility control plates were also observed for evidence of drug precipitation.
(§2) Compound K. pneumoniae A. baumannii E. coli P. aeruginosa […]
(§3) Supplementary Table 3. Minimum inhibitory concentration (MIC; µg/ml) of DNM
(§4) compounds that show potential synergy in combination with colistin. […]

E. coli ATCC 25922 = test: as above; assay type: cell-based; conditions: compound alone, bracket after colistin value is a range (0.25-2)
Protocol: as §1, §2, §3, §4

K. pneumoniae MMX8390 = test: as above; assay type: cell-based; conditions: compound alone
Protocol: as §1, §2, §3, §4

P. aeruginosa ATCC 27853 = test: as above; assay type: cell-based; conditions: compound alone, bracket after colistin value is a range (0.25-4)
Protocol: as §1, §2, §3, §4

S. aureus (MRSA) = test: MIC, clinical and laboratory strains; assay type: cell-based
Protocol: as §1, with “organism.” for “organism. Uninoculated solubility control plates were also observed for evidence of drug precipitation.”

S. aureus (MSSA) = test: MIC, clinical and laboratory strains; assay type: cell-based
Protocol: as §1, with “organism.” for “organism. Uninoculated solubility control plates were also observed for evidence of drug precipitation.”

S. aureus (VISA) = test: MIC, clinical and laboratory strains; assay type: cell-based
Protocol: as §1, with “organism.” for “organism. Uninoculated solubility control plates were also observed for evidence of drug precipitation.”

[1] = tested on: 102 ATCC strains and clinical isolates of Staphylococcus, Streptomyces, and Enterococcus; test: MIC panel summary over all strains; assay type: cell-based; conditions: of 102 strains
Protocol: We also sought to determine if DNM0547 was bacteriostatic or bactericidal. Time kill experiments were carried out using increasing doses of DNM0547 against two different strains of MRSA.
as §1, with “organism.” for “organism. Uninoculated solubility control plates were also observed for evidence of drug precipitation.”

MRSA (ATCC 33591) = test: Rabbit ischemic ear wound model of infection by MRSA, topical treatment; assay type: in vivo, New Zealand White rabbits; conditions: for % wound closure / wound size (mean) / Wound size (mm2): Fig 2c
Protocol: New Zealand White rabbits from Charles River were employed for this study. Both male and female rabbits were used; sample size prevented disaggregation of data by sex. Investigators were blinded to group allocation, data collection, and data analysis. Food and water were given ad libidum and animals were acclimatized for 7 days with photoperiods of alternating 12 h light and dark at 21 °C in relative humidity of 40–50%. The formulation for delivery of DNM compounds was Glaxal base (WellSpring Pharmaceutical Canada Corp., Oakville, Canada). Formulation was performed by dissolving compound in Glaxal base to give final concentrations of 1% or 2% DNM compound (w/v). The analgesic (Buprenex 0.02 mg/kg sc) and anesthesia (isoflurane (0.5–5% with oxygen carrier 0.5–2 L/min) were used as required during procedures. An ischemia wound healing model was conducted surgically. Each wound was inoculated with 50 μl of 2 × 10^7 CFU/mL MRSA (ATCC #33591) and dressed. After 1 day, wounds were treated with either 50 μl control cream containing vehicle or 50 μl cream containing compound daily. Wounds were assessed and observations recorded using the Draize scoring system. Digital photographs of each wound were obtained and documented.

[2] = Histopathology (H&E) of treated rabbit ischemic ear wounds, dermal toxicity; conditions: Suppl Fig 7, score per wound
Protocol: Wounds were excised, fixed, and routine H&E staining was performed. Wounds were examined for pathology and scored in a blinded manner.
Post-wounding, under anesthesia, animals were euthanized with an intravenous injection of Beuthanasia-D at a dosage of 150 mg/kg of body weight. Specimens including the entire wound, along with ~2–3 mm of the normal unwounded skin margins were harvested. Each ear wound specimen was sectioned into halves. For one half of the wound, the wound was placed into a container with 10% neutral buffered formalin and processed for routine histological evaluation. Wounds were scored on a scale of 0–4 at the wound site for erythema, edema, inflammation, granulation, angiogenesis, and epithelialization. Wounds were characterized in a blinded manner by a board-certified member of the College of American Pathologists.

Cc1cc(Cl)ccc1-c1cc(S(N)(=O)=O)sc1-c1ccc(Cl)cc1C [DNM0658]
MIC (A. baumannii ATCC 19606): > 64 µg/mL | MIC (E. coli ATCC 25922): > 64 µg/mL | MIC (K. pneumoniae MMX8390): > 64 µg/mL | MIC (P. aeruginosa ATCC 27853): > 64 µg/mL

C/C(=C\C(=O)OCCCCCCCCC(=O)O)C[C@@H]1OC[C@H](C[C@@H]2O[C@H]2[C@@H](C)[C@H](C)O)[C@@H](O)[C@H]1O [mupirocin]
MIC (S. aureus (MRSA); S. aureus (MRSA) 2167): 0.12 µg/mL (≈ 0.24 µM) | MIC (S. aureus (MRSA); S. aureus (MRSA) 2168): 0.25 µg/mL (≈ 0.499 µM) | MIC (S. aureus (MRSA); S. aureus (MRSA) 2169): 0.25 µg/mL (≈ 0.499 µM) | MIC (S. aureus (MRSA); S. aureus (MRSA) 2170): 0.25 µg/mL (≈ 0.499 µM) | MIC (S. aureus (MRSA); S. aureus (MRSA) 2171): 0.25 µg/mL (≈ 0.499 µM) | MIC (S. aureus (MRSA); S. aureus (MRSA) 2293): 0.25 µg/mL (≈ 0.499 µM) | MIC (S. aureus (MRSA); S. aureus (MRSA) 2294): 0.25 µg/mL (≈ 0.499 µM) | MIC (S. aureus (MRSA); S. aureus (MRSA) 2295): 0.25 µg/mL (≈ 0.499 µM) | MIC (S. aureus (MRSA); S. aureus (MRSA) 2296): 0.25 µg/mL (≈ 0.499 µM) | MIC (S. aureus (MRSA); S. aureus (MRSA) 2297): 0.25 µg/mL (≈ 0.499 µM) | MIC (S. aureus (MRSA); S. aureus (MRSA) 3880): > 16 µg/mL | MIC (S. aureus (MRSA); S. aureus (MRSA) 5373): 1 µg/mL (≈ 2 µM) | MIC (S. aureus (MRSA); S. aureus (MRSA) 5666): 1 µg/mL (≈ 2 µM) | MIC (S. aureus (MRSA); S. aureus (MRSA) 5702): 1 µg/mL (≈ 2 µM) | MIC (S. aureus (MRSA); S. aureus (MRSA) 5999): 1 µg/mL (≈ 2 µM) | MIC (S. aureus (MRSA); S. aureus (MRSA) 6165): 1 µg/mL (≈ 2 µM) | MIC (S. aureus (MRSA); S. aureus (MRSA) 6169): 0.5 µg/mL (≈ 0.999 µM) | MIC (S. aureus (MRSA); S. aureus (MRSA) 6174): 1 µg/mL (≈ 2 µM) | MIC (S. aureus (MRSA); S. aureus (MRSA) 6311): 1 µg/mL (≈ 2 µM) | MIC (S. aureus (MRSA); S. aureus (MRSA) 6312): 1 µg/mL (≈ 2 µM) | MIC (S. aureus (MRSA); S. aureus (MRSA) 6313): 1 µg/mL (≈ 2 µM) | MIC (S. aureus (MRSA); S. aureus (MRSA) 6315): 1 µg/mL (≈ 2 µM) | MIC (S. aureus (MRSA); S. aureus (MRSA) 6320): 1 µg/mL (≈ 2 µM) | MIC (S. aureus (MRSA); S. aureus (MRSA) 6498): 1 µg/mL (≈ 2 µM) | MIC (S. aureus (MRSA); S. aureus (MRSA) 6501): 1 µg/mL (≈ 2 µM) | MIC (S. aureus (MRSA); S. aureus (MRSA) 6505): 1 µg/mL (≈ 2 µM) | MIC (S. aureus (MRSA); S. aureus (MRSA) 6506): 1 µg/mL (≈ 2 µM) | MIC (S. aureus (MRSA); S. aureus (MRSA) NRS382/2119): 1 µg/mL (≈ 2 µM) | MIC (S. aureus (MRSA); S. aureus (MRSA) NRS383/2120): > 16 µg/mL | MIC (S. aureus (MRSA); S. aureus (MRSA) NRS384/2011): 1 µg/mL (≈ 2 µM) | MIC (S. aureus (MSSA); S. aureus (MSSA) 2127): > 16 µg/mL | MIC (S. aureus (MSSA); S. aureus (MSSA) 6167): 1 µg/mL (≈ 2 µM) | MIC (S. aureus (MSSA); S. aureus (MSSA) 6168): 2 µg/mL (≈ 3.99 µM) | MIC (S. aureus (MSSA); S. aureus (MSSA) 6170): 2 µg/mL (≈ 3.99 µM) | MIC (S. aureus (MSSA); S. aureus (MSSA) 6316): 2 µg/mL (≈ 3.99 µM) | MIC (S. aureus (MSSA); S. aureus (MSSA) 6317): 1 µg/mL (≈ 2 µM) | MIC (S. aureus (MSSA); S. aureus (MSSA) 6318): 2 µg/mL (≈ 3.99 µM) | MIC (S. aureus (MSSA); S. aureus (MSSA) 6499): 1 µg/mL (≈ 2 µM) | MIC (S. aureus (MSSA); S. aureus (MSSA) 6500): 1 µg/mL (≈ 2 µM) | MIC (S. aureus (MSSA); S. aureus (MSSA) 6502): 1 µg/mL (≈ 2 µM) | MIC (S. aureus (VISA); S. aureus (VISA) 1724): 0.25 µg/mL (≈ 0.499 µM) | MIC (S. aureus (VISA); S. aureus (VISA) 2012): 1 µg/mL (≈ 2 µM) | MIC (S. aureus (VISA); S. aureus (VISA) 2013): 0.25 µg/mL (≈ 0.499 µM) | MIC (S. aureus (VISA); S. aureus (VISA) 2014): 0.5 µg/mL (≈ 0.999 µM) | MIC (S. aureus (VISA); S. aureus (VISA) 2015): 0.06 µg/mL (≈ 0.12 µM) | MIC (S. aureus (VISA); S. aureus (VISA) 2016): 0.25 µg/mL (≈ 0.499 µM) | MIC (S. aureus (VISA); S. aureus (VISA) 2017): 0.5 µg/mL (≈ 0.999 µM) | MIC (S. aureus (VISA); S. aureus (VISA) 2018): 0.12 µg/mL (≈ 0.24 µM) | MIC (S. aureus (VISA); S. aureus (VISA) 2019): 4 µg/mL (≈ 7.99 µM) | MIC (S. aureus (VISA); S. aureus (VISA) 2123): 0.25 µg/mL (≈ 0.499 µM) | MIC (S. aureus (VISA); S. aureus (VISA) NRS1/1723): 0.25 µg/mL (≈ 0.499 µM) | number of strains tested with MIC not ≤ 2 μg/mL [1]: 26 | CFUs (MRSA (ATCC 33591); Fig 2b, individual wounds): 0 CFUs (6×) and 4120 CFUs | % wound closure (MRSA (ATCC 33591); Day 1): 0% | wound size (mean) (MRSA (ATCC 33591); Day 1): 34.3 mm2 | % wound closure (MRSA (ATCC 33591); Day 3): 3.64% | wound size (mean) (MRSA (ATCC 33591); Day 3): 33.056 mm2 | wound size (mean) (MRSA (ATCC 33591); Day 5): 31.872 mm2 | % wound closure (MRSA (ATCC 33591); Day 7): 10.3% | wound size (mean) (MRSA (ATCC 33591); Day 7): 30.776 mm2 | % wound closure (MRSA (ATCC 33591); Day 10): 22.68% | wound size (mean) (MRSA (ATCC 33591); Day 10): 26.526 mm2 | % wound closure (MRSA (ATCC 33591); Day 14): 43.29% | wound size (mean) (MRSA (ATCC 33591); Day 14): 19.45 mm2 | % wound closure (MRSA (ATCC 33591); Day 18): 53.8% | wound size (mean) (MRSA (ATCC 33591); Day 18): 15.838 mm2 | Wound size (mm2) (MRSA (ATCC 33591); individual wounds, Day 1): 36.53 mm2 and 30.25 mm2 and 32.45 mm2 and 37.03 mm2 and 35.24 mm2 | Wound size (mm2) (MRSA (ATCC 33591); individual wounds, Day 3): 33.98 mm2 and 27.23 mm2 and 29.57 mm2 and 36.33 mm2 and 38.17 mm2 | Wound size (mm2) (MRSA (ATCC 33591); individual wounds, Day 5): 33.31 mm2 and 25.96 mm2 and 29.21 mm2 and 35.69 mm2 and 35.19 mm2 | Wound size (mm2) (MRSA (ATCC 33591); individual wounds, Day 7): 31.43 mm2 and 25.29 mm2 and 28.29 mm2 and 34.94 mm2 and 33.93 mm2 | Wound size (mm2) (MRSA (ATCC 33591); individual wounds, Day 10): 30.25 mm2 and 23.34 mm2 and 26.6 mm2 and 26.26 mm2 and 26.18 mm2 | Wound size (mm2) (MRSA (ATCC 33591); individual wounds, Day 14): 23.68 mm2 and 17.17 mm2 and 19.28 mm2 and 18.84 mm2 and 18.28 mm2 | Wound size (mm2) (MRSA (ATCC 33591); individual wounds, Day 18): 20.63 mm2 and 12.49 mm2 and 12.8 mm2 and 15.19 mm2 and 18.08 mm2 | wound healing compared with control (MRSA (ATCC 33591); topical 2%): did not alter wound healing from control; also recorded: not statistically significant | Edema [2]: 2 | Erythema [2]: 2 | Inflammation [2]: 3 and 4
